Results published in patent US20100190747A1, “Fused ring compound and use thereof” (priority 2009, published 2010).

These molecules were tested against T1, delta-5-desaturase (Rattus norvegicus, UniProt Q920R3) (assay: Inhibitory activity on delta-5-desaturase (rat liver microsomal fraction, 14C-eicosatrienoic acid, TLC)). Settings: test compound at 10 μM, room temperature, 120 minutes.
T1 construct: the microsomal fraction of a rat river (10 μl), which had been diluted to 3 mg/ml; from tissue; host or cells: rat liver microsomal fraction
T1 sequence (Q920R3 whole entry): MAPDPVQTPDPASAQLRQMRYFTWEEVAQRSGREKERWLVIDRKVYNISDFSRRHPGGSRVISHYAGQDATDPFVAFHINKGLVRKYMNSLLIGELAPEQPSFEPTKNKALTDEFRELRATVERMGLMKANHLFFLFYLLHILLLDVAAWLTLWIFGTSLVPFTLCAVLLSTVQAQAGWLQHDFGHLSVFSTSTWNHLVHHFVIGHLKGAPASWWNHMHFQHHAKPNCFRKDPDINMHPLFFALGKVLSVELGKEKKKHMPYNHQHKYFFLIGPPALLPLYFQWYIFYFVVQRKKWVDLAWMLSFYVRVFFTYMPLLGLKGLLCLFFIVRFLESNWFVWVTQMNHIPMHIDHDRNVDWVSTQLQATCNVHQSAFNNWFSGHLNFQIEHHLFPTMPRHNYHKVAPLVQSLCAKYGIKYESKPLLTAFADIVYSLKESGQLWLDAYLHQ
Type: biochemical
Summary of the method: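 Rat liver microsomes (3 mg/ml before addition) incubated with test compound at 10 μM, NADH, ATP, CoA and 14C-eicosatrienoic acid in phosphate buffer pH 7.4 with BSA and glutathione, 120 min at room temperature. Lipids saponified, extracted, separated by reverse-phase TLC and imaged; % inhibition reported.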

| inhibition at 10 µM | SMILES |
| --- | --- |
| 104% | O=c1c2cc[nH]c2nc(SC2CC2)n1-c1ccc(OCC(F)(F)F)cc1 [Example 256, 2-(Cyclopropylsulfanyl)-3-[4-(2,2,2-trifluoroethoxy)phenyl]-3,7-dihydro-4H-pyrrolo[2,3-d]pyrimidin-4-one] |
| 100% | CC(C)OCC(O)CSc1nc2cc[nH]c2c(=O)n1-c1ccc(OCC(F)(F)F)cc1 (stereo not drawn) [Example 130, 2-{[2-Hydroxy-3-(1-methylethoxy)propyl]sulfanyl}-3-[4-(2,2,2-trifluoroethoxy)phenyl]-3,5-dihydro-4H-pyrrolo[3,2-d]pyrimidin-4-one] |
| 98% | CCSc1nc2[nH]ccc2c(=O)n1-c1ccc(OC(F)(F)F)cc1 [Example 254, 2-(Ethylsulfanyl)-3-[4-(trifluoromethoxy)phenyl]-3,7-dihydro-4H-pyrrolo[2,3-d]pyrimidin-4-one] |
| 101% | CCS(=O)(=O)c1nc2[nH]ccc2c(=O)n1-c1ccc(OCC(F)(F)F)cc1 [Example 207, 2-(Ethylsulfonyl)-3-[4-(2,2,2-trifluoroethoxy)phenyl]-3,7-dihydro-4H-pyrrolo[2,3-d]pyrimidin-4-one] |
| 102% | CC(C)CSc1nc2c(c(=O)n1-c1ccc(OCC(F)(F)F)cc1)CC(=O)N2 [Example 313, 2-[(2-Methylpropyl)sulfanyl]-3-[4-(2,2,2-trifluoroethoxy)phenyl]-5,7-dihydro-3H-pyrrolo[2,3-d]pyrimidine-4,6-dione] |
| 99% | O=C1Cc2c(nc(OCC(F)F)n(-c3ccc(OCC(F)(F)F)cc3)c2=O)N1 [Example 275, 2-(2,2-Difluoroethoxy)-3-[4-(2,2,2-trifluoroethoxy)phenyl]-5,7-dihydro-3H-pyrrolo[2,3-d]pyrimidine-4,6-dione] |
| 101% | O=c1c2cc[nH]c2nc(SCCO)n1-c1ccc(OCC(F)(F)F)cc1 [Example 214, 2-[(2-Hydroxyethyl)sulfanyl]-3-[4-(2,2,2-trifluoroethoxy)phenyl]-3,7-dihydro-4H-pyrrolo[2,3-d]pyrimidin-4-one] |
| 98% | O=C1Cc2c(nc(Oc3ccc(F)cc3)n(-c3ccc(OCC(F)(F)C(F)(F)F)cc3)c2=O)N1 [Example 311, 2-(4-Fluorophenoxy)-3-[4-(2,2,3,3,3-pentafluoropropoxy)phenyl]-5,7-dihydro-3H-pyrrolo[2,3-d]pyrimidine-4,6-dione] |
| 102% | O=c1c2[nH]ccc2nc(SCCCN2CCOCC2)n1-c1ccc(OCC(F)(F)F)cc1 [Example 112, 2-[(3-Morpholin-4-ylpropyl)sulfanyl]-3-[4-(2,2,2-trifluoroethoxy)phenyl]-3,5-dihydro-4H-pyrrolo[3,2-d]pyrimidin-4-one] |
| 102% | N#CCCNC(=O)CCCSc1nc2cc[nH]c2c(=O)n1-c1ccc(OCC2CC2)cc1 [Example 92, N-(2-cyanoethyl)-4-({3-[4-(cyclopropylmethoxy)phenyl]-4-oxo-4,5-dihydro-3H-pyrrolo[3,2-d]pyrimidin-2-yl}sulfanyl)butanamide] |
| 104% | CC(C)Oc1nc2[nH]ccc2c(=O)n1-c1ccc(OCC(F)(F)F)cc1 [Example 221, 2-(1-Methylethoxy)-3-[4-(2,2,2-trifluoroethoxy)phenyl]-3,7-dihydro-4H-pyrrolo[2,3-d]pyrimidin-4-one] |
| 105% | COCCSc1nc2c(c(=O)n1-c1ccc(OCC(F)(F)F)cc1)CC(=O)N2 [Example 325, 2-[(2-Methoxyethyl)sulfanyl]-3-[4-(2,2,2-trifluoroethoxy)phenyl]-5,7-dihydro-3H-pyrrolo[2,3-d]pyrimidine-4,6-dione] |
| 101% | CCOCCCSc1nc2cc[nH]c2c(=O)n1-c1ccc(OCC2CC2)cc1 [Example 139, 3-[4-(Cyclopropylmethoxy)phenyl]-2-[(3-ethoxypropyl)sulfanyl]-3,5-dihydro-4H-pyrrolo[3,2-d]pyrimidin-4-one] |
| 100% | CCSc1nc2cc[nH]c2c(=O)n1-c1ccc(OCC(F)(F)F)cc1 [Example 104, 2-(Ethylsulfanyl)-3-[4-(2,2,2-trifluoroethoxy)phenyl]-3,5-dihydro-4H-pyrrolo[3,2-d]pyrimidin-4-one] |
| 102% | CCOc1ccc(-n2c(SCCCS(=O)(=O)NCCC#N)nc3cc[nH]c3c2=O)cc1 [Example 62, N-(2-cyanoethyl)-3-{[3-(4-ethoxyphenyl)-4-oxo-4,5-dihydro-3H-pyrrolo[3,2-d]pyrimidin-2-yl]sulfanyl}propane-1-sulfonamide] |
| 100% | O=C1Cc2c(nc(SCC(F)(F)F)n(-c3ccc(OCC(F)(F)C(F)(F)F)cc3)c2=O)N1 [Example 347, 3-[4-(2,2,3,3,3-Pentafluoropropoxy)phenyl]-2-[(2,2,2-trifluoroethyl)sulfanyl]-5,7-dihydro-3H-pyrrolo[2,3-d]pyrimidine-4,6-dione] |
| 99% | CC(C)(O)CSc1nc2c(c(=O)n1-c1ccc(OCC(F)(F)F)cc1)CC(=O)N2 [Example 315, 2-[(2-Hydroxy-2-methylpropyl)sulfanyl]-3-[4-(2,2,2-trifluoroethoxy)phenyl]-5,7-dihydro-3H-pyrrolo[2,3-d]pyrimidine-4,6-dione] |
| 100% | CCOCCCSc1nc2[nH]ccc2c(=O)n1-c1ccc(OCC(F)(F)F)cc1 [Example 213, 2-[(3-Ethoxypropyl)sulfanyl]-3-[4-(2,2,2-trifluoroethoxy)phenyl]-3,7-dihydro-4H-pyrrolo[2,3-d]pyrimidin-4-one] |
| 100% | CSc1nc2cc[nH]c2c(=O)n1-c1ccc(OCC(F)(F)F)cc1 [Example 121, 2-(Methylsulfanyl)-3-[4-(2,2,2-trifluoroethoxy)phenyl]-3,5-dihydro-4H-pyrrolo[3,2-d]pyrimidin-4-one] |
| 101% | O=c1c2cc[nH]c2nc(OCC(F)(F)C(F)(F)F)n1-c1ccc(OCC(F)(F)F)cc1 [Example 239, 2-(2,2,3,3,3-Pentafluoropropoxy)-3-[4-(2,2,2-trifluoroethoxy)phenyl]-3,7-dihydro-4H-pyrrolo[2,3-d]pyrimidin-4-one] |
| 100% | O=c1c2[nH]ccc2nc(SCCCS(=O)(=O)NCC(F)(F)F)n1-c1ccc(OCC(F)(F)F)cc1 [Example 107, 3-({4-Oxo-3-[4-(2,2,2-trifluoroethoxy)phenyl]-4,5-dihydro-3H-pyrrolo[3,2-d]pyrimidin-2-yl}sulfanyl)-N-(2,2,2-trifluoroethyl)propane-1-sulfonamide] |
| 98% | CCSc1nc2c(c(=O)n1-c1ccc(OCC(F)(F)F)cc1)CC(=O)N2 [Example 265, 2-(Ethylsulfanyl)-3-[4-(2,2,2-trifluoroethoxy)phenyl]-5,7-dihydro-3H-pyrrolo[2,3-d]pyrimidine-4,6-dione] |
| 99% | N#CCCNC(=O)CCCSc1nc2cc[nH]c2c(=O)n1-c1ccc(OCCC(F)(F)F)cc1 [Example 90, N-(2-cyanoethyl)-4-({4-oxo-3-[4-(3,3,3-trifluoropropoxy)phenyl]-4,5-dihydro-3H-pyrrolo[3,2-d]pyrimidin-2-yl}sulfanyl)butanamide] |

| SMILES | inhibition at 10 µM |
| --- | --- |
| CC(C)(C)CCOc1ccc(-n2c(SCCCC(=O)NCCC#N)nc3[nH]ccc3c2=O)cc1 [Example 176, N-(2-cyanoethyl)-4-({3-[4-(3,3-dimethylbutoxy)phenyl]-4-oxo-4,7-dihydro-3H-pyrrolo[2,3-d]pyrimidin-2-yl}sulfanyl)butanamide] | 98% |
